# Reference: ChEMBL document CHEMBL4622831, “Anti-diabetic drugs recent approaches and advancements” (Bioorg Med Chem, 2020)
# Target: not listed separately
# Experiment: Inhibition of Saccharomyces cerevisiae alpha-glucosidase using p-Nitrophenyl-alpha-D-glucopyranoside as substrate preincubated for 15 mins followed by substrate addition measured after 30 mins
row,Structure (SMILES),IC50
1,COc1ccc(O)c(-c2nc3cc(Cl)ccc3s2)c1,22900 to 25600 nM

# Target: not listed separately
# Experiment: Inhibition of baker's yeast alpha-glucosidase using PNPG as substrate preincubated for 10 mins followed by substrate addition measured after 30 mins
# Design: species or system Saccharomyces cerevisiae
row,Structure (SMILES),IC50
1,Cc1cc2c(cc1C)NC(c1ccc(C(=O)NNC(=S)Nc3ccc([N+](=O)[O-])cc3)cc1)N2,35800 nM
2,Cc1cc2c(cc1C)NC(c1ccc(C(=O)NNC(=S)Nc3ccc(Br)cc3)cc1)N2,50600 nM

# Target: not listed separately
# Experiment: Inhibition of Saccharomyces cerevisiae alpha-glucosidase using p-nitrophenyl-alpha-D-glucopyranoside as substrate preincubated for 10 mins followed by substrate addition measured after 20 mins
row,Structure (SMILES),IC50
1,Brc1ccc(-n2c(-c3cn(-c4ccccc4)nc3-c3ccccc3)nc(-c3ccccc3)c2-c2ccccc2)cc1,25200 nM
2,O=[N+]([O-])c1cccc(-c2nn(-c3ccccc3)cc2-c2nc(-c3ccccc3)c(-c3ccccc3)n2-c2ccc(Br)cc2)c1,33600 nM

# Target: not listed separately
# Experiment: Inhibition of alpha-glucosidase (unknown origin) using p-NPG as substrate preincubated for 15 mins followed by substrate addition
# Design: species or system Homo sapiens
row,Structure (SMILES),IC50
1,O=C1Nc2cc(Cl)ccc2/C1=C\c1ccc(-c2nnc(-c3cc(O)cc(O)c3)o2)cc1,1250 nM

# Target: Free fatty acid receptor 1 (Homo sapiens, UniProt O14842)
# Sequence (O14842 whole entry): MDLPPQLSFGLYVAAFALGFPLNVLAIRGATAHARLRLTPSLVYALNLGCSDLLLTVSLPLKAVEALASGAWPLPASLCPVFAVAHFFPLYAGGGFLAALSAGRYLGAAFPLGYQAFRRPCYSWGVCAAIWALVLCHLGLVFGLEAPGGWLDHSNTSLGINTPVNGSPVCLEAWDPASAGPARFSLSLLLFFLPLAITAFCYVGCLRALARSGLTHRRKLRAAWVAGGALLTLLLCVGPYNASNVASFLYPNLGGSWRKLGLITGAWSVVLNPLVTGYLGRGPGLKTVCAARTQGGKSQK
# Description: Modulation of GPR40 (unknown origin)
row,Structure (SMILES),EC50
1,COc1cc(N2CCC(Oc3ccc(N4N=C(C(F)(F)F)[C@@H](C)C4CC(=O)O)cc3)C(C)C2)c(Cl)cn1 (some centres undefined),71 nM

# Target: T1, Tyrosine-protein phosphatase non-receptor type 1 (Homo sapiens, UniProt P18031)
# T1 sequence (P18031 whole entry): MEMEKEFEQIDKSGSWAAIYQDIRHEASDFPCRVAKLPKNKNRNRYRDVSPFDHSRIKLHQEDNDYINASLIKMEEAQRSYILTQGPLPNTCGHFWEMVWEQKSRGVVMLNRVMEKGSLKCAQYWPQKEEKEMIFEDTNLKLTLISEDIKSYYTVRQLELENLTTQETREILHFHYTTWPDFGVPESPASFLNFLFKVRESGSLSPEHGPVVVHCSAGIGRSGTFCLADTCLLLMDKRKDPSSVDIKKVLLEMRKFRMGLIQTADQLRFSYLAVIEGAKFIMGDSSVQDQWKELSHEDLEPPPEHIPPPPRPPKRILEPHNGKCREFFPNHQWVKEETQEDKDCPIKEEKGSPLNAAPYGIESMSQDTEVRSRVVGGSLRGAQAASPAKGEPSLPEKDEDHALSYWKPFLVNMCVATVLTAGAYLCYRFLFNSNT
# Experiment: Inhibition of PTP1B (unknown origin)
row,Structure (SMILES),IC50
1,CC(C)(C)OC(=O)N[C@@H](Cc1ccc(OCc2nc3ccccc3[nH]2)cc1)C(=O)O,43600 nM
2,COc1cc(CC2SC(=O)NC2=O)ccc1OS(C)(=O)=O (centres undefined),7310 nM
3,O=C1/C(=C/c2ccc(-c3ccccc3)cc2)NC(=S)C1c1ccccc1 (centres undefined),2900 nM
4,COc1cc(CC2SC(=O)NC2=O)ccc1OS(=O)(=O)c1ccccc1 (centres undefined),8730 nM
5,O=C(CSc1nc2cc(Cl)ccc2s1)Nc1cccc(-c2nnn[nH]2)c1,1880 nM
6,CC(C)(C)OC(=O)N[C@@H](Cc1ccc(OCc2ccc(-c3ccccc3C#N)cc2)cc1)C(=O)O,44000 nM

# Target: not listed separately
# Experiment: Inhibition of baker's yeast alpha-glucosidase using p-nitrophenyl-alpha-D-glucopyranoside as substrate preincubated for 5 mins followed by substrate addition measured after 5 mins
# Design: species or system Saccharomyces cerevisiae
row,Structure (SMILES),IC50
1,O=C(N/N=C/c1cccc(O)c1O)c1cc2ccccc2oc1=O,1100 nM

# Target: T2, Free fatty acid receptor 4 (Homo sapiens, UniProt Q5NUL3)
# T2 sequence (Q5NUL3 whole entry): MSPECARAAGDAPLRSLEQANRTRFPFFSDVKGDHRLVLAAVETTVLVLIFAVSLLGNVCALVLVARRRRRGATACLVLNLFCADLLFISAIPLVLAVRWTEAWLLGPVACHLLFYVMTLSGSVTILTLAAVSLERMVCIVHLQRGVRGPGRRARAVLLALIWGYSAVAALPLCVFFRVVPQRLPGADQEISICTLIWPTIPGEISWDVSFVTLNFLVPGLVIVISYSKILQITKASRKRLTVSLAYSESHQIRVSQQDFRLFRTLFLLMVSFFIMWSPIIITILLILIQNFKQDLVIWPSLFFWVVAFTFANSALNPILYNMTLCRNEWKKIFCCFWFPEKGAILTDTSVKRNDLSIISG
# Experiment: Agonist activity at GPR120 (unknown origin)
row,Structure (SMILES),EC50
1,O=C(O)CCc1ccc(OCc2cccc(SCC3CC3)n2)c(Cl)c1,6 nM
2,CCc1cc2cc(C(F)(F)F)cc(COc3ccc(CCC(=O)O)c(C)c3C)c2o1,110 nM
3,O=C(O)CCCc1ccc(OCC2=C(c3ccc(C4CC4)cc3)CCCC2)cc1,50 to 500 nM
4,OCCCc1cc(F)c(OCc2c(C(F)(F)F)ccn2-c2ccc(Br)cc2)c(F)c1,61 nM
5,COc1ccc(F)c(-c2ncc(COc3ccc([C@@H](CC(=O)O)C4CC4)cc3)nc2OCCC(F)(F)F)c1,6 nM

# Target: not listed separately
# Experiment: Inhibition of alpha-glucosidase (unknown origin) using p-NPG as substrate preincubated for 5 mins followed by substrate addition measured after 30 mins
# Design: species or system Homo sapiens
row,Structure (SMILES),IC50
1,Cc1ccccc1C(=O)/N=c1\scc(C)n1-c1cc(Cl)c(Cl)cc1Cl,150 nM
2,Cc1cs/c(=N\C(=O)c2cccc3ccccc23)n1-c1cc(Cl)c(Cl)cc1Cl,150 nM

# Target: Dipeptidyl peptidase 4 (Homo sapiens, UniProt P27487)
# Sequence (P27487 whole entry): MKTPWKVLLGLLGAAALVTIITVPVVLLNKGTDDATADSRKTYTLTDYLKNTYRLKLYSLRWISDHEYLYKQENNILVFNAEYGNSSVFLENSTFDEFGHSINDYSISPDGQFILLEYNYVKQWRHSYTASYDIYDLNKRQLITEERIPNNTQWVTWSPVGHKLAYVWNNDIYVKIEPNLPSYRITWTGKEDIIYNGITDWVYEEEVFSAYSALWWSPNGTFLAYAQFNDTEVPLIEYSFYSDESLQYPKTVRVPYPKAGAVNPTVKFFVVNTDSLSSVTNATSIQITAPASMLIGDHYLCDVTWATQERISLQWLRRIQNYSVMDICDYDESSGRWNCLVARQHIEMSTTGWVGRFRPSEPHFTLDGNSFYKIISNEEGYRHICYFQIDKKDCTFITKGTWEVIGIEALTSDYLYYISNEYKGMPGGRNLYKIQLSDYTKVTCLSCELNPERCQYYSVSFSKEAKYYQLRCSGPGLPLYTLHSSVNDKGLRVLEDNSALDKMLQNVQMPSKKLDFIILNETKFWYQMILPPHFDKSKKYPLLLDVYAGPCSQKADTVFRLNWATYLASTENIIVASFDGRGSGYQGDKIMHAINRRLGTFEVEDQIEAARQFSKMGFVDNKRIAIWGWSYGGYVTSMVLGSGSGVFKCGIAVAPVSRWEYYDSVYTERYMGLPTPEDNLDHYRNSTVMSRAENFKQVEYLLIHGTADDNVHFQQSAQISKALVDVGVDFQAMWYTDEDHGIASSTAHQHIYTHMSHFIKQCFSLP
# Description: Inhibition of DPP4 (unknown origin)
Structure (SMILES),EC50,IC50
CC#CC(CC(=O)O)c1ccc(OCc2cccc(CN3CCC4N=C(C5CC5)OC4C3)c2)cc1 (centres undefined),1.2 nM,
CCOC(=O)c1c(C(C)C)cc(C(C)C)c(C(=O)OCC)c1-c1cc2ccc(-c3ccc4c(C)cccc4c3)cc2[nH]1,,2.72 nM
O=[N+]([O-])c1cccc(/C=N/N2C(c3ccccc3)=Nc3ccc(I)cc3C2NC2NC=CS2)c1 (centres undefined),,0.76 nM
N[C@@H]1CN(c2ncc(Oc3c[nH]nc3C3=CCC(F)(F)CC3)cn2)C[C@@H]1c1cc(F)c(F)cc1F,,6 nM
CC#CCn1c(N2CCC[C@H](N)C2)cc(=O)n(Cc2nc(C)c3cc(C)ccc3n2)c1=O,,5.78 nM
N#C[C@@H]1CCCN1C(=O)[C@@H](N)Cc1ccc(-c2cn(C3CC3)nn2)cc1,,247 nM

# Target: not listed separately
# Experiment: Inhibition of alpha-glucosidase (unknown origin) using p-NPG as substrate preincubated for 15 mins followed by substrate addition measured after 30 mins
# Design: species or system Homo sapiens
row,Structure (SMILES),IC50
1,O=C(CC(c1ccc(Cl)cc1)C(C(=O)Nc1ccccn1)C(=O)Nc1ccccn1)c1ccc2ccccc2c1 (centres undefined),11700 nM
2,Cn1cc(-c2nnc(-c3ccc(C(c4c[nH]c5ccc(Cl)cc45)c4c[nH]c5ccc(Cl)cc45)cc3)o2)c2ccccc21,2000 nM
